Measurements taken from ChEMBL document CHEMBL1201862, “PubChem BioAssay data set” (2004).
Active and inactive are the calls of the source.

How the values were obtained:
[1] = target: T1, Aspartyl aminopeptidase (Plasmodium falciparum 3D7, UniProt Q8I2J3); assay: Counterscreen for inhibitors of M1 and M17 aminopeptidases: QFRET-based biochemical high throughput dose response assay for inhibitors of the Plasmodium falciparum M18 Aspartyl Aminopeptidase (PFM18AAP). [Related PubChem assays: 1619 (Screening assay (M17LAP inhibitors).), 1445 (Screening assay (M1AAP inhibitors).)]
T1 sequence (Q8I2J3 whole entry): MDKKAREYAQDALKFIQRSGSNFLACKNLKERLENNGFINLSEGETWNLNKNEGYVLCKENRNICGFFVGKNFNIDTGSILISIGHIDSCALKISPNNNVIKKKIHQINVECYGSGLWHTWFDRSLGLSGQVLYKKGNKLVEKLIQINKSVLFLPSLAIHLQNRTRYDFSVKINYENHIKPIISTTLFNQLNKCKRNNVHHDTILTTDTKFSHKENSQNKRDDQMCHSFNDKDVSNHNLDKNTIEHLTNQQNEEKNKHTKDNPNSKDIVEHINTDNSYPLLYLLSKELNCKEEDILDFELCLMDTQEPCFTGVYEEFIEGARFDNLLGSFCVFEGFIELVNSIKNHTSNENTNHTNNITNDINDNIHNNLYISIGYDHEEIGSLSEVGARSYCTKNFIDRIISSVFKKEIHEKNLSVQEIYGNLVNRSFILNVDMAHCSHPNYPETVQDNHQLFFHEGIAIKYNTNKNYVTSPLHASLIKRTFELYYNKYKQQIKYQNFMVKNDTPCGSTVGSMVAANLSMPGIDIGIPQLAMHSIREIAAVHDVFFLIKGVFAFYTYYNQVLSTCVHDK

[2] = target: T2, Aminopeptidase N (Plasmodium falciparum FcB1/Columbia, UniProt O96935); assay: P. falciparum M1AAP inhibitors, biochemical, fluorogenic H-Leu-NHMec substrate, 1536-well (AID 1445); set-up: species or system Plasmodium falciparum 3D7, 3D7
T2 sequence (O96935 whole entry): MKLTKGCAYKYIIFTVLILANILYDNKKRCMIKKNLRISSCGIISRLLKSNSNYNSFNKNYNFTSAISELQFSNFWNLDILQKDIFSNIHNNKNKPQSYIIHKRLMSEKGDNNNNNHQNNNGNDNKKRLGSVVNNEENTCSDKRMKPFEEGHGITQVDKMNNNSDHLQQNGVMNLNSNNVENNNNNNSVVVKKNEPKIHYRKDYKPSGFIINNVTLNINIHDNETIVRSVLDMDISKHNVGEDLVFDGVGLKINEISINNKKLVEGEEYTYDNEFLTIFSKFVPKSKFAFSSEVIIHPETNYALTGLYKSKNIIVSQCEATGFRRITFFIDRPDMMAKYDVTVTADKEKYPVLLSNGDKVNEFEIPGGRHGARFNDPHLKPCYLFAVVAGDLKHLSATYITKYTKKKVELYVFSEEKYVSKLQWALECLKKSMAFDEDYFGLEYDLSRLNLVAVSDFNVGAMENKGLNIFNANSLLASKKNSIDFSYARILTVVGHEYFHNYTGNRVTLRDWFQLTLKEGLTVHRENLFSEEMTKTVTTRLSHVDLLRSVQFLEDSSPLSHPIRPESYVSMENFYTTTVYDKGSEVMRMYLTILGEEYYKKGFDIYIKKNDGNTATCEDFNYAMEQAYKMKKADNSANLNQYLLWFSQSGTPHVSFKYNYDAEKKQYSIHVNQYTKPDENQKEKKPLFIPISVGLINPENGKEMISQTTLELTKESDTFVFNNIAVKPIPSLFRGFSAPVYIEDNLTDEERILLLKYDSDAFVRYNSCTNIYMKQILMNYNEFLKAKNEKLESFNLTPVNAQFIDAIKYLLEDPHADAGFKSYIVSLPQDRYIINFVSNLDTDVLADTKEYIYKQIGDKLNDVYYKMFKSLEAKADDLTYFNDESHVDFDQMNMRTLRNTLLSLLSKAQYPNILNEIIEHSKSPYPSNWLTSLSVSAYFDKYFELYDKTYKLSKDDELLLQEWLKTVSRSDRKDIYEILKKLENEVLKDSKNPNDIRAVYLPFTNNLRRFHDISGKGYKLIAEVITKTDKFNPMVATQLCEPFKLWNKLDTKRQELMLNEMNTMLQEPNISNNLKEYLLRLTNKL

[3] = target: Procathepsin L (Homo sapiens, UniProt P07711); assay: cathepsin L inhibitors, dose response, counter-screen for M1/M17 aminopeptidase inhibitor project, biochemical, QFRET, 1536-well (AID 2214)
Chain of Procathepsin L (P07711 whole entry): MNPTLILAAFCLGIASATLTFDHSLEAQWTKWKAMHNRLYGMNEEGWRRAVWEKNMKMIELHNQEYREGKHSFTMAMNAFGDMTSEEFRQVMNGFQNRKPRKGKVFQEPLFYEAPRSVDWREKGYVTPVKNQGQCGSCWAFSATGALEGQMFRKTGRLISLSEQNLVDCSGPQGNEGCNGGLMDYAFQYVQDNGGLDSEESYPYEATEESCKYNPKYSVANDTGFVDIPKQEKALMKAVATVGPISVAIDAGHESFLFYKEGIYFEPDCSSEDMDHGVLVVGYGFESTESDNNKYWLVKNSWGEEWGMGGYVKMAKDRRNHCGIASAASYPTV

[4] = target: Intestinal-type alkaline phosphatase (Mus musculus, UniProt P24822); assay: PubChem AID 488785; assay type: functional
Chain of Intestinal-type alkaline phosphatase (Mus musculus, UniProt P24822) (P24822 whole entry): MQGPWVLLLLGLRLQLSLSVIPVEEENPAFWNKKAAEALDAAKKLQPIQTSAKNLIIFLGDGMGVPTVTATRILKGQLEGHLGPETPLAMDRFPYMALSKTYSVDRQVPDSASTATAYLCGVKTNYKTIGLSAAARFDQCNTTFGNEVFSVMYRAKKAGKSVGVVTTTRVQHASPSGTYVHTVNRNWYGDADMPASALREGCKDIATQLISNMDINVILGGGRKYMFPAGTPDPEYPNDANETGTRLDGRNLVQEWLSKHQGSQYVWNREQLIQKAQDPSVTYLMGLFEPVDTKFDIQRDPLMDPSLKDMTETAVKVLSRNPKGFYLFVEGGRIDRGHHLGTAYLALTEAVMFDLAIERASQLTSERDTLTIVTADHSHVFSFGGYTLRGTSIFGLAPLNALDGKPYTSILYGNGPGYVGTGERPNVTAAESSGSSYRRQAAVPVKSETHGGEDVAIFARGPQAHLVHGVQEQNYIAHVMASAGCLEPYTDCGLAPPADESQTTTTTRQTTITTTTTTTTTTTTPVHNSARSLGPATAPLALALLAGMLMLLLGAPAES

[5] = target: T3, Alkaline phosphatase, tissue-nonspecific isozyme (Homo sapiens, UniProt P05186); assay: TNAP enzyme inhibition by screening hits, dose response, selectivity assay for mouse IAP inhibitor project, biochemical, human TNAP, uHTS hits (AID 488906); assay type: functional
T3 sequence (P05186 whole entry): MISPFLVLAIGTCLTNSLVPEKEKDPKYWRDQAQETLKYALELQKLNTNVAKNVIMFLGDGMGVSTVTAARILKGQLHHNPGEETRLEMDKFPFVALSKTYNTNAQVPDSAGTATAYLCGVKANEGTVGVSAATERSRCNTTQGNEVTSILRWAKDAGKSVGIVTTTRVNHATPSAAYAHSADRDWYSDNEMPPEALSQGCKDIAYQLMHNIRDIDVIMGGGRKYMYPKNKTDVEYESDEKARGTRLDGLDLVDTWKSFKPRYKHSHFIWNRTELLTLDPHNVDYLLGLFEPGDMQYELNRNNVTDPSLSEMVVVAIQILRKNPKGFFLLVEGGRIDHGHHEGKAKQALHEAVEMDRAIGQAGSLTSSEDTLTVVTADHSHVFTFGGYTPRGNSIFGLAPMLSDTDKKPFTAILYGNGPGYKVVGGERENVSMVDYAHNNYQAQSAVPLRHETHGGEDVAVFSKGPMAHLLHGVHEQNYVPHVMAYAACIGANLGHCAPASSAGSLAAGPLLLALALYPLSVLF

[6] = target: Intestinal-type alkaline phosphatase (Homo sapiens, UniProt P09923); assay: inhibition of human intestinal alkaline phosphatase – biochemical, dose response (AID 488876); assay type: functional
[7] = target: T4, Delta-type opioid receptor (Homo sapiens, UniProt P41143); assay: HTS Image-Based Screen for Antagonists of the DOR Receptor. [Related pubchem assays (depositor defined):AID1777, AID1785, AID1786, AID2133]; assay type: functional
T4 sequence (P41143 whole entry): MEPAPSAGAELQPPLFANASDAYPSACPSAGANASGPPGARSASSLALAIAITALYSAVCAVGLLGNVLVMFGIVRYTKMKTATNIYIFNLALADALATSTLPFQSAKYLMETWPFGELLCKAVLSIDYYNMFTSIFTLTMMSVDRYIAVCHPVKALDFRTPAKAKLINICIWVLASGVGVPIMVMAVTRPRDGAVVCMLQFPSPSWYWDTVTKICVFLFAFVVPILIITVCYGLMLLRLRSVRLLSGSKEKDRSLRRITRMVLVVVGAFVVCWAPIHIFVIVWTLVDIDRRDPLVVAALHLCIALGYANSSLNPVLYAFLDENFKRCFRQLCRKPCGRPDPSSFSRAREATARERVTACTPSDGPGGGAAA

[8] = target: Mu-type opioid receptor (Homo sapiens, UniProt P35372); assay: HTS Image-Based Screen for Agonists of the MOR Receptor. [Related pubchem assays (depositor defined):AID1777, AID1785, AID1786, AID2133]; assay type: functional;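 further: imaging of beta-arrestin GFP recruitment into spots after receptor activation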
Chain of Mu-type opioid receptor (P35372 whole entry): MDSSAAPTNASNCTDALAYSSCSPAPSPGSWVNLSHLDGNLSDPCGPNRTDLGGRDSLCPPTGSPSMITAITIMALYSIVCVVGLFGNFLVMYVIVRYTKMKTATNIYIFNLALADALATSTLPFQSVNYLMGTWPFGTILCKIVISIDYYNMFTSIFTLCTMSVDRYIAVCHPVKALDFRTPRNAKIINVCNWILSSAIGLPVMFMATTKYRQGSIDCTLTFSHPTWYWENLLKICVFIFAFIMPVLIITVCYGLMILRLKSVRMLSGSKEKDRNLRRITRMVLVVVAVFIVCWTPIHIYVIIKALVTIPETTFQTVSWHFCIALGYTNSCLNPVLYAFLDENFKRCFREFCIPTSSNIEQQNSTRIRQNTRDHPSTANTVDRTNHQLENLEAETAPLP

[9] = target: T4, Delta-type opioid receptor; assay: HTS Image-Based Screen for Agonists of the DOR Receptor. [Related pubchem assays (depositor defined):AID1777, AID1786, AID2133]; assay type: functional
[10] = target: T5, Kappa-type opioid receptor (Homo sapiens, UniProt P41145); assay type: functional
T5 sequence (P41145 whole entry): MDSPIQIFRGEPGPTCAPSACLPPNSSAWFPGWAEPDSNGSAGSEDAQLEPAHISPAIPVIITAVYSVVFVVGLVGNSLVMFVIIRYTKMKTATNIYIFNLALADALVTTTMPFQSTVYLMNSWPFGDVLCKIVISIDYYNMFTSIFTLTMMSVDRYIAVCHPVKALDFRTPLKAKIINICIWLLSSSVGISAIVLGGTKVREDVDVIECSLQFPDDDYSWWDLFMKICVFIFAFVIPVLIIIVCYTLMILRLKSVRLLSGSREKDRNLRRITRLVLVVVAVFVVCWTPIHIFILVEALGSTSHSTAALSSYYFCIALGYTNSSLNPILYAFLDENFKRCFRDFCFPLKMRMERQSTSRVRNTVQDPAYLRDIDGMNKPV

[11] = target: Beta-galactosidase (Escherichia coli, UniProt Q8VNN2); assay type: functional
Chain of Beta-galactosidase (Q8VNN2 whole entry): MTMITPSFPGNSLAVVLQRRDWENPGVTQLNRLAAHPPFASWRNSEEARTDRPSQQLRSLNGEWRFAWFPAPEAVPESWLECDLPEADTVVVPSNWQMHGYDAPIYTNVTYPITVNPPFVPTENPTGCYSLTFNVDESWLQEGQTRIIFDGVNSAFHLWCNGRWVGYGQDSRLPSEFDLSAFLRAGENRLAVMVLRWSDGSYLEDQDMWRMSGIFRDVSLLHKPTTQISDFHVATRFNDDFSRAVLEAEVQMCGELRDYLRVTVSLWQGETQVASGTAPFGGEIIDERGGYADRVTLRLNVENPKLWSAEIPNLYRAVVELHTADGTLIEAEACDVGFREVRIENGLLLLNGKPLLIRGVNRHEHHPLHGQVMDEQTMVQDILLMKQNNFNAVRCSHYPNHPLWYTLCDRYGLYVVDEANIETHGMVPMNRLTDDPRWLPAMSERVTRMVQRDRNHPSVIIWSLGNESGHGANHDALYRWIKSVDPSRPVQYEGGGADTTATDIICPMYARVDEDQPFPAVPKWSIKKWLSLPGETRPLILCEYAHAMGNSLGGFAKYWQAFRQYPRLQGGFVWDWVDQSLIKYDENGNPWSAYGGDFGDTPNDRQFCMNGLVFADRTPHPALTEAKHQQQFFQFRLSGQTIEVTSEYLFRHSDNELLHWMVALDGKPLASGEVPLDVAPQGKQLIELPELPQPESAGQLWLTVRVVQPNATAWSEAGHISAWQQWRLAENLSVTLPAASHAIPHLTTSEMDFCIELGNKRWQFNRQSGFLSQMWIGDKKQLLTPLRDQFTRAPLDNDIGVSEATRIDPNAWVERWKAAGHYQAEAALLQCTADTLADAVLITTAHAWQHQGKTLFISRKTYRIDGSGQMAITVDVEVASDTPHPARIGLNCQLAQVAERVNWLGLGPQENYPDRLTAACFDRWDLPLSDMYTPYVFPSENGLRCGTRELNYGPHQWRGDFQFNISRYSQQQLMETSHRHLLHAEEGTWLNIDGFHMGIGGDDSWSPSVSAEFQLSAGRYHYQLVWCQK

[12] = target: T5, Kappa-type opioid receptor; assay type: functional; remark: listed apart in the source
[13] = target: Voltage-dependent T-type calcium channel subunit alpha-1H (Homo sapiens, UniProt O95180); assay: Cav3.2 T-type channel blockers, cell-based, SynthLib3 library, HEK293 Cav3.2, fluorescence (AID 493041); assay type: functional
[14] = target: T6, Cannabinoid receptor 2 (Homo sapiens, UniProt P34972); assay: SAR analysis of antagonists of the Cannabinoid Receptor 2 using an Image-Based Assay - Set 2. [Related pubchem assays (depositor defined):AID1961, AID1965]; assay type: functional
T6 sequence (P34972 whole entry): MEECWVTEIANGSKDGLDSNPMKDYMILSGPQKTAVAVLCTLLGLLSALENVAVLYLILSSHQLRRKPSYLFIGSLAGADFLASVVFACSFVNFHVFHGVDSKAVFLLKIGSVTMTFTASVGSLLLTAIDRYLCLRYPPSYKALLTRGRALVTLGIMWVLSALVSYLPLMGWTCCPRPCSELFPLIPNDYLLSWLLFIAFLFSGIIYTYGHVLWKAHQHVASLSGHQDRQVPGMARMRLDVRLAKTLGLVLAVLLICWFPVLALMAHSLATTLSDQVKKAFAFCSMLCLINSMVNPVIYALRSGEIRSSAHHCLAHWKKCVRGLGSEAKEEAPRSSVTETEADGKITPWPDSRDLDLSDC

[15] = target: T6, Cannabinoid receptor 2; assay: SAR analysis of agonists of the Cannabinoid Receptor 2 using an Image-Based Assay - Set 2. [Related pubchem assays (depositor defined):AID1961, AID1965]; assay type: functional
[16] = target: G-protein coupled receptor 55 (Homo sapiens, UniProt Q9Y2T6); assay: SAR analysis of selective Agonists of GPR55 using an Image-Based Assay. [Related pubchem assays (depositor defined):AID1961, AID1965]; assay type: functional
Chain of G-protein coupled receptor 55 (Q9Y2T6 whole entry): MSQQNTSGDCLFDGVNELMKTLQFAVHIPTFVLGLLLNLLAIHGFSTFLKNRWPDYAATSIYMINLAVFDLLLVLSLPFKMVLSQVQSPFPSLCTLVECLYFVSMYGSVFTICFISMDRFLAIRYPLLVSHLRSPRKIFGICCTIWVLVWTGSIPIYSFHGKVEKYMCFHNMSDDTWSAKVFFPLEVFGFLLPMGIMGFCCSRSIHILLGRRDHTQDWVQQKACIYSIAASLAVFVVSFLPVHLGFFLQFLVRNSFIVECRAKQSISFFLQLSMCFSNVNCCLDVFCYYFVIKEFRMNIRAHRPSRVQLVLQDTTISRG

[17] = target: Cannabinoid receptor 1 (Homo sapiens, UniProt P21554); assay: SAR analysis of antagonists of the Cannabinoid Receptor 1 using an Image-Based Assay. [Related pubchem assays (depositor defined):AID1961, AID1965]; assay type: functional
Chain of Cannabinoid receptor 1 (P21554 whole entry): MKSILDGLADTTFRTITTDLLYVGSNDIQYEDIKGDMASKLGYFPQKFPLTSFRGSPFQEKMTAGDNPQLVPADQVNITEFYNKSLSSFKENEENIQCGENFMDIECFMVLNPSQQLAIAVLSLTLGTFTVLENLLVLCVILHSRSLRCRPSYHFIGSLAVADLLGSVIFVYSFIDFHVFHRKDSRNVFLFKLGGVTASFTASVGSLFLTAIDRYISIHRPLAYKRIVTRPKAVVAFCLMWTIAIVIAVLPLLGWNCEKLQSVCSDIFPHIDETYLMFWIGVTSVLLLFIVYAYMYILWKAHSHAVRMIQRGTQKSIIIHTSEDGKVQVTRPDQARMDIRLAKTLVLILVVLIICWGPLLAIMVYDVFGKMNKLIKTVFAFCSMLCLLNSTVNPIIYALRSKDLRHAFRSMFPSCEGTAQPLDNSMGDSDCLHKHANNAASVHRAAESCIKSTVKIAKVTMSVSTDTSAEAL

[18] = target: Exodeoxyribonuclease V (Escherichia coli (strain K12), UniProt P04993+P07648+P08394); assay: E. coli RecBCD inhibitors, dose response, counter-screen for AddAB inhibitor project, absorbance, V66 E. coli, mutant T4 phage (AID 492957); assay type: functional, cell-based, Escherichia coli str. K-12 substr. MG1655
[19] = target: Nonstructural protein 1 (Influenza A virus, UniProt Q194T2); assay type: functional, Influenza A virus (A/California/07/2009(H1N1))
Chain of Nonstructural protein 1 (Q194T2 whole entry): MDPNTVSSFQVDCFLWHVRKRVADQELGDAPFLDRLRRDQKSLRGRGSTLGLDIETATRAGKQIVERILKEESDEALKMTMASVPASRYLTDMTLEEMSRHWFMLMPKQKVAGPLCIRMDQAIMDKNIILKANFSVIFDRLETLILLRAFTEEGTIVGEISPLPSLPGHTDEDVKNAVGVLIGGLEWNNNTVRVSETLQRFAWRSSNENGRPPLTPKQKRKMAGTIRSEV

[20] = Counterscreen for AddAB inhibitors: absorbance-based bacterial cell-based high throughput dose response assay for inhibitors of bacterial viability. [Related pubchem assays (depositor defined):AID435030, AID449728, AID449731, AID488942, AID488955, AID488956]; assay type: functional
[21] = target: T7, Microphthalmia-associated transcription factor (Homo sapiens, UniProt O75030); assay: TRPM1 promoter luciferase signal decrease, dose response, MITF inhibitor project, cell-based, SK-MEL-5, cherry-picked, set 3 (AID 493073); assay type: functional
T7 sequence (O75030 whole entry): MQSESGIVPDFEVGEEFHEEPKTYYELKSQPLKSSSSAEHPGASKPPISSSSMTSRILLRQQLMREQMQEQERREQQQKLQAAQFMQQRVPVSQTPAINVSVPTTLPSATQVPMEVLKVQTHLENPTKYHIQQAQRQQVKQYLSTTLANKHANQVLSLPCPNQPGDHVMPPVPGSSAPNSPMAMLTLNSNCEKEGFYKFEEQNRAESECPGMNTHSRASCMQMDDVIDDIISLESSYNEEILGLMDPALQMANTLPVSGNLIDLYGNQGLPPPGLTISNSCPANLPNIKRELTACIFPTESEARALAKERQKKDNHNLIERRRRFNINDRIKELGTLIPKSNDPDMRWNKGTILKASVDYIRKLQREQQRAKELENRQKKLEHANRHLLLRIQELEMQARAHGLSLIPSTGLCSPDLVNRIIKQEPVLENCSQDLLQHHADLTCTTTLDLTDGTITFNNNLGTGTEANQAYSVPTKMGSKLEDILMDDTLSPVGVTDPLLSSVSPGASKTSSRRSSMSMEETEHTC

For `O=C1Nc2ccccc2/C1=C1/SC(=S)N(NC(=O)c2ccccc2)C1=O`, the IC50 [1] was > 73.5 µM (not active), the IC50 [2] was 11.2 µM (active) and the IC50 [3] was 38.3 µM (not active). For the same compound, the IC50 [4] was 6.46 µM (active), the IC50 [5] was > 100 µM (inactive) and the IC50 [6] was 3.09 µM (active).
For `CCOc1ccccc1C(=O)NC1CC2CCCC(C1)N2Cc1ccc(C)cc1` (stereo unspecified), the IC50 [7] was > 32 µM (inactive), the EC50 [8] was > 32 µM (inactive) and the EC50 [9] was > 32 µM (inactive). For the same compound, the IC50 [10] was 4.81 µM (active), the EC50 [11] was > 31.5 µM (inactive) and the IC50 [12] was 21.7 µM.
In the case of `CC(C)CCN1CC2CCC(NC(=O)c3cc(Cl)cc(Cl)c3)C2C1` (stereo unspecified), the EC50 [13] is reported as 1.8 µM (active).
For `CCCN(CCC)Cc1c(C(=O)NN=C/C(C)=C\c2ccco2)nnn1-c1nonc1N`, the IC50 [14] was > 32 µM (inactive), the EC50 [15] was > 32 µM (inactive) and the EC50 [16] was 0.597 µM (active). For the same compound, the IC50 [17] was > 32 µM (inactive).
For `O=C(O)c1cccc(NC(=S)N/N=C/c2ccccn2)c1`, the IC50 [18] was > 119 µM (inactive), the IC50 [19] was 4.06 µM (active) and the IC50 [20] was > 119 µM (inactive). For the same compound, the AC50 [21] was 8.63 µM (active).
